Measurements reported in ChEMBL document CHEMBL1221222, “Analysis of the eukaryotic prenylome by isoprenoid affinity tagging” (Nat Chem Biol, 2009).
Active and inactive are the calls of the source. The calls are words filed in the database; no cut-off is given here.

Assays:
COS-7 [1] = experiment: Inhibition of isoprenoid biosynthesis in african green monkey COS7 assessed as unprenylated Rab protein level by Western blot analysis; assay type: functional, cell-based; settings: Chlorocebus aethiops
COS-7 [2] = experiment: Inhibition of RabGGTase in african green monkey COS7 cells assessed as unprenylated Rab01A level by MudPIT analysis; assay type: cell-based
COS-7 [3] = experiment: Inhibition of RabGGTase in african green monkey COS7 cells assessed as unprenylated Rab01B level by MudPIT analysis; assay type: cell-based
COS-7 [4] = experiment: Inhibition of RabGGTase in african green monkey COS7 cells assessed as unprenylated Rab02A level by MudPIT analysis; assay type: cell-based
COS-7 [5] = experiment: Inhibition of RabGGTase in african green monkey COS7 cells assessed as unprenylated Rab02B level by MudPIT analysis; assay type: cell-based
COS-7 [6] = experiment: Inhibition of RabGGTase in african green monkey COS7 cells assessed as unprenylated Rab03A level by MudPIT analysis; assay type: cell-based
COS-7 [7] = experiment: Inhibition of RabGGTase in african green monkey COS7 cells assessed as unprenylated Rab03B level by MudPIT analysis; assay type: cell-based
COS-7 [8] = experiment: Inhibition of RabGGTase in african green monkey COS7 cells assessed as unprenylated Rab03C level by MudPIT analysis; assay type: cell-based
COS-7 [9] = experiment: Inhibition of RabGGTase in african green monkey COS7 cells assessed as unprenylated Rab03D level by MudPIT analysis; assay type: cell-based
COS-7 [10] = experiment: Inhibition of RabGGTase in african green monkey COS7 cells assessed as unprenylated Rab04A level by MudPIT analysis; assay type: cell-based
COS-7 [11] = experiment: Inhibition of RabGGTase in african green monkey COS7 cells assessed as unprenylated Rab04B level by MudPIT analysis; assay type: cell-based
COS-7 [12] = experiment: Inhibition of RabGGTase in african green monkey COS7 cells assessed as unprenylated Rab05A level by MudPIT analysis; assay type: cell-based
COS-7 [13] = experiment: Inhibition of RabGGTase in african green monkey COS7 cells assessed as unprenylated Rab05B level by MudPIT analysis; assay type: cell-based
COS-7 [14] = experiment: Inhibition of RabGGTase in african green monkey COS7 cells assessed as unprenylated Rab05C level by MudPIT analysis; assay type: cell-based
COS-7 [15] = experiment: Inhibition of RabGGTase in african green monkey COS7 cells assessed as unprenylated Rab06A level by MudPIT analysis; assay type: cell-based
COS-7 [16] = experiment: Inhibition of RabGGTase in african green monkey COS7 cells assessed as unprenylated Rab06B level by MudPIT analysis; assay type: cell-based
COS-7 [17] = experiment: Inhibition of RabGGTase in african green monkey COS7 cells assessed as unprenylated Rab06C level by MudPIT analysis; assay type: cell-based
COS-7 [18] = experiment: Inhibition of RabGGTase in african green monkey COS7 cells assessed as unprenylated Rab07a level by MudPIT analysis; assay type: cell-based
COS-7 [19] = experiment: Inhibition of RabGGTase in african green monkey COS7 cells assessed as unprenylated Rab08A level by MudPIT analysis; assay type: cell-based
COS-7 [20] = experiment: Inhibition of RabGGTase in african green monkey COS7 cells assessed as unprenylated Rab08B level by MudPIT analysis; assay type: cell-based
COS-7 [21] = experiment: Inhibition of RabGGTase in african green monkey COS7 cells assessed as unprenylated Rab09A level by MudPIT analysis; assay type: cell-based
COS-7 [22] = experiment: Inhibition of RabGGTase in african green monkey COS7 cells assessed as unprenylated Rab09B level by MudPIT analysis; assay type: cell-based
COS-7 [23] = experiment: Inhibition of RabGGTase in african green monkey COS7 cells assessed as unprenylated Rab10 level by MudPIT analysis; assay type: cell-based
COS-7 [24] = experiment: Inhibition of RabGGTase in african green monkey COS7 cells assessed as unprenylated Rab11A level by MudPIT analysis; assay type: cell-based
COS-7 [25] = experiment: Inhibition of RabGGTase in african green monkey COS7 cells assessed as unprenylated Rab11B level by MudPIT analysis; assay type: cell-based
COS-7 [26] = experiment: Inhibition of RabGGTase in african green monkey COS7 cells assessed as unprenylated Rab13 level by MudPIT analysis; assay type: cell-based
COS-7 [27] = experiment: Inhibition of RabGGTase in african green monkey COS7 cells assessed as unprenylated Rab14 level by MudPIT analysis; assay type: cell-based
COS-7 [28] = experiment: Inhibition of RabGGTase in african green monkey COS7 cells assessed as unprenylated Rab15 level by MudPIT analysis; assay type: cell-based
COS-7 [29] = experiment: Inhibition of RabGGTase in african green monkey COS7 cells assessed as unprenylated Rab18 level by MudPIT analysis; assay type: cell-based
COS-7 [30] = experiment: Inhibition of RabGGTase in african green monkey COS7 cells assessed as unprenylated Rab21 level by MudPIT analysis; assay type: cell-based
COS-7 [31] = experiment: Inhibition of RabGGTase in african green monkey COS7 cells assessed as unprenylated Rab22A level by MudPIT analysis; assay type: cell-based
COS-7 [32] = experiment: Inhibition of RabGGTase in african green monkey COS7 cells assessed as unprenylated Rab27A level by MudPIT analysis; assay type: cell-based
COS-7 [33] = experiment: Inhibition of RabGGTase in african green monkey COS7 cells assessed as unprenylated Rab27B level by MudPIT analysis; assay type: cell-based
COS-7 [34] = experiment: Inhibition of RabGGTase in african green monkey COS7 cells assessed as unprenylated Rab30 level by MudPIT analysis; assay type: cell-based
COS-7 [35] = experiment: Inhibition of RabGGTase in african green monkey COS7 cells assessed as unprenylated Rab31 level by MudPIT analysis; assay type: cell-based
COS-7 [36] = experiment: Inhibition of RabGGTase in african green monkey COS7 cells assessed as unprenylated Rab33B level by MudPIT analysis; assay type: cell-based
COS-7 [37] = experiment: Inhibition of RabGGTase in african green monkey COS7 cells assessed as unprenylated Rab34 level by MudPIT analysis; assay type: cell-based
COS-7 [38] = experiment: Inhibition of RabGGTase in african green monkey COS7 cells assessed as unprenylated Rab35 level by MudPIT analysis; assay type: cell-based
COS-7 [39] = experiment: Inhibition of RabGGTase in african green monkey COS7 cells assessed as unprenylated Rab37 level by MudPIT analysis; assay type: cell-based
COS-7 [40] = experiment: Inhibition of RabGGTase in african green monkey COS7 cells assessed as unprenylated Rab39A level by MudPIT analysis; assay type: cell-based
COS-7 [41] = experiment: Inhibition of RabGGTase in african green monkey COS7 cells assessed as unprenylated Rab41 level by MudPIT analysis; assay type: cell-based
COS-7 [42] = experiment: Inhibition of RabGGTase in african green monkey COS7 cells assessed as unprenylated Rab43 level by MudPIT analysis; assay type: cell-based
COS-7 [43] = experiment: Inhibition of RabGGTase in african green monkey COS7 cells assessed as unprenylated Rab39B level by MudPIT analysis; assay type: cell-based

CC[C@H](C)C(=O)O[C@H]1CCC=C2C=C[C@H](C)[C@H](CC[C@@H]3C[C@@H](O)CC(=O)O3)[C@H]21
inhibition (COS-7 [1]): Active
Activity (COS-7 [2]): 1.7 pmol
Activity (COS-7 [3]): 1.8 pmol
Activity (COS-7 [4]): 1.2 pmol
Activity (COS-7 [5]): 0.5 pmol
Activity (COS-7 [6]): 0.7 pmol
Activity (COS-7 [7]): 0.4 pmol
Activity (COS-7 [8]): 0.4 pmol
Activity (COS-7 [9]): 1.1 pmol
Activity (COS-7 [10]): 0.2 pmol
Activity (COS-7 [11]): 0.2 pmol
Activity (COS-7 [12]): 1.3 pmol
Activity (COS-7 [13]): 1.1 pmol
Activity (COS-7 [14]): 1.6 pmol
Activity (COS-7 [15]): 0.8 pmol
Activity (COS-7 [16]): 0.6 pmol
Activity (COS-7 [17]): 0.2 pmol
Activity (COS-7 [18]): 1.7 pmol
Activity (COS-7 [19]): 0.6 pmol
Activity (COS-7 [20]): 0.4 pmol
Activity (COS-7 [21]): 0.8 pmol
Activity (COS-7 [22]): 0.3 pmol
Activity (COS-7 [23]): 1 pmol
Activity (COS-7 [24]): 1.2 pmol
Activity (COS-7 [25]): 1.5 pmol
Activity (COS-7 [26]): 0.4 pmol
Activity (COS-7 [27]): 1.5 pmol
Activity (COS-7 [28]): 0.1 pmol
Activity (COS-7 [29]): 0.7 pmol
Activity (COS-7 [30]): 0.6 pmol
Activity (COS-7 [31]): 0.8 pmol
Activity (COS-7 [32]): 0.1 pmol
Activity (COS-7 [33]): 0.1 pmol
Activity (COS-7 [34]): 0.2 pmol
Activity (COS-7 [35]): 0.3 pmol
Activity (COS-7 [36]): 0.2 pmol
Activity (COS-7 [37]): 0.1 pmol
Activity (COS-7 [38]): 0.6 pmol
Activity (COS-7 [39]): 0.2 pmol
Activity (COS-7 [40]): 0.2 pmol
Activity (COS-7 [41]): 0.2 pmol
Activity (COS-7 [42]): 0.2 pmol
Activity (COS-7 [43]): 0.2 pmol
